{"source": "patent US6569846B1", "about": "“Palladium-substituted bacteriochlorophyll derivatives and use thereof” (Yeda Research and Development Co. Ltd., priority 1998, dated 2003)", "key": {"[1]": {"experiment": "Stability of Pd-BPheid solutions by HPLC profile", "format": "physicochemical", "procedure": "A reverse phase HPLC method was developed to characterize the impurity profile and quantify the Palladium-BPheid.\nSolutions of Pd-BPheid stored in acetone at −20° C. were stable for at least 2-month period."}, "M2R mouse melanoma cells [2]": {"system": "M2R mouse melanoma cells", "experiment": "Phototoxicity on M2R cells (Example 10, [3H]-thymidine incorporation)", "format": "cell-based", "conditions": "pigments dissolved directly in culture medium containing 10% serum", "procedure": "The diluted pigments were added and the cells were incubated in the dark for four hours at 37° C. Prior to illumination, the cells were washed once and replaced with fresh culture medium. The plates were then illuminated from the bottom for 10 minutes at room temperature and placed in the culture incubator at 37° C. in the dark. […] The following control systems were used: Dark control—untreated cells kept in the dark; Light control—cells not treated with sensitizer that were illuminated; Dark toxicity—cells treated with pigment but kept in the dark."}, "M2R mouse melanoma cells [3]": {"system": "M2R mouse melanoma cells", "experiment": "Phototoxicity on M2R cells (Example 11, [3H]-thymidine incorporation)", "format": "cell-based", "procedure": "For phototoxicity analysis cells (1×10^4 cells/well) were cultured in 96-well plates for 24 hours to an approximate density of 2×10^4 cells/well. Pigments were dissolved directly in culture medium or in ethanol 95% and further diluted in culture medium to a final concentration of 1% ethanol. The diluted pigments were added and the cells were incubated in the dark for four hours at 37° C. Prior to illumination, the cells were washed once and replaced with fresh culture medium. The plates were then illuminated from the bottom for 10 minutes at room temperature and placed in the culture incubator at 37° C. in the dark. Cell survival was determined 24 hours later. The following control systems were used: Dark control—untreated cells kept in the dark; Light control—cells not treated with sensitizer that were illuminated; Dark toxicity—cells treated with pigment but kept in the dark. Cell survival was determined by [^3H]-thymidine incorporation as described earlier (WO 97/19081). […]\n(iii) Phototoxicity study: Analysis was performed with the same protocol as described above (Example 10) with the following changes: Pd-BPheid was dissolved directly in medium containing 10% serum and then added to the cells. Survival of M2R cells was determined by [^3H]-thymidine incorporation and that of human HT29 cells with the MTT assay (Merlin J L et al., 1992 Eur. J. Cancer 28A: 1452-1458)."}, "[4]": {"system": "L1210 murine leukemia cells", "experiment": "In vitro phototoxicity on L1210 cells (MTT)", "format": "cell-based", "conditions": "1 μM, 30 min at 37° C.", "procedure": "(i) Cell lines. The murine leukemia cell line (L1210) was maintained in suspension culture using Fischer's medium supplemented with 10% horse serum, 1 mM glutamine, 1 mM mercaptoethanol and gentamicin. The RIF (Radiation induced Fibrosarcoma) tumor was maintained as specified by Twentyman et al. (1980, “A new mouse tumor model system (RIF-1) for comparison of end-point studies”, J. Natl. Cancer Inst., 64, 595-604). Cultures were grown in Weymouth's medium containing 10% fetal calf serum and gentamycin.\n(ii) In vitro phototoxicity. For studies on phototoxicity involving L1210 and RIF cells, light was provided by a 600 watt quartz-halogen source filtered with 10 cm of water and a 850 nm cut-off filter to remove IR. […] […] The cells were then washed free from the sensitizer, and transferred to fresh media. Irradiations were carried out at 10° C. For some studies, the cells were then labeled with fluorescent probes and sites of photodamage were assessed. In other studies, the cells were then incubated for 60 min at 37° C. in fresh medium to allow apoptosis to proceed. Viability studies were carried out using 96-well plates and a 72-hour MTT assay, in quadruplicate.\n(iii) Cell Viability. Cell survival was assessed by the MTT reaction carried out 3 days after plating of 1,000-50,000 cells in 96 well plates. […] Absorbance at x nm was determined with a BioRad Plate reader. […]"}, "C3H/BA mammary carcinoma": {"system": "C3H/BA mammary carcinoma", "experiment": "In vivo PDT of BA mammary carcinoma", "design": "key to Summary (cures), symbol: −: no response", "procedure": "Photodynamic therapy parameters: Mice with tumors measuring 5-7 mm in diameter were entered into PDT experiments. Three Pd-BPheid drug doses (1, 5 and 10 mg/kg) and two light doses (100 and 300 Joules/sq.cm) were evaluated. A formulation of Pd-BPheid dissolved in Cremophor was administered by i.v. tail injection. PDT light exposure was started either 15 minutes, 1 hour or 4 hours following injection. […] A titanium sapphire laser tuned to 757 nm was used as the light source for PDT. Laser generated light was coupled into quartz fibers for delivery of light to tumors. A light power density of 75 mW/sq.cm was used. Tumor size was measured 3 days per week following PDT treatments and the percentage of tumor cures (defined as no tumor recurrence for 40 days post treatment) was determined.\nIn vivo PDT Response: Tables 4 and 5 hereinafter provide summaries of the PDT treatment results for C3H mice transplanted with either the BA mammary carcinoma or the RIF-1 fibrosarcoma. Each table indicates the following parameters: 1) intravenous drug dose expressed in mg/kg; 2) laser treatment parameters, including the total light dose (J/cm^2), the wavelength (757 nm), the light dose rate (mW/cm^2), and the time interval ([…], 4) toxicity (four mice died shortly after treatment), 5) tumor regrowth (consisting of the number of days between PDT treatment and tumor recurrence) and 6) the number of mice (and percentage) with Pd-BPheid PDT induced tumor cures."}, "[5]": {"conditions": "1 mg/Kg i.v., 300 J/cm^2, 757 nm, 75 mW/cm^2, 15 min. interval"}, "[6]": {"conditions": "5 mg/Kg i.v., 300 J/cm^2, 757 nm, 75 mW/cm^2, 1 HR interval"}, "[7]": {"conditions": "5 mg/Kg i.v., 300 J/cm^2, 757 nm, 75 mW/cm^2, 15 min. interval"}, "[8]": {"conditions": "10 mg/Kg i.v., 100 J/cm^2, 757 nm, 75 mW/cm^2, 1 HR interval"}, "[9]": {"conditions": "10 mg/Kg i.v., 100 J/cm^2, 757 nm, 75 mW/cm^2, 15 min. interval"}, "[10]": {"conditions": "10 mg/Kg i.v., 300 J/cm^2, 757 nm, 75 mW/cm^2, 1 HR interval"}, "[11]": {"conditions": "10 mg/Kg i.v., 300 J/cm^2, 757 nm, 75 mW/cm^2, 4 HR interval"}}, "note": "Several values for one entry are separate records, joined by “and”; a condition that tells them apart may be missing. Identical values can stand only once.", "data": [{"smiles": "CC[C@H]1C2=NC(=Cc3c(C(C)=O)c(C)c4[n]3[Pd][n]3c(c(C)c5c3=C(C3=NC(=C4)[C@@H](C)[C@@H]3CCC(=O)O)[C@@H](C(=O)OC)C5=O)=C2)[C@@H]1C", "note": "[Pd-BPheid, Pd-bacteriopheophorbide a]", "values": [{"measurement": "change in the HPLC profile", "setting": "[1]; stock solution at room temperature for 18 hours", "result": "no change in the HPLC profile"}, {"measurement": "period for which solutions were stable", "setting": "[1]; stored in acetone at −20° C.", "result": "at least 2 month"}, {"measurement": "phototoxic activity", "setting": "M2R mouse melanoma cells [2]", "result": "fully active"}, {"measurement": "sensitivity of M2R cells relative to HT-29 cells", "setting": "M2R mouse melanoma cells [3]", "result": "about 10 times"}, {"measurement": "cell killing", "setting": "[4]; 75 mJ/cm^2 light at 760±5 nm", "result": 50, "unit": "%"}, {"measurement": "dose of light resulting in 50% cell killing", "setting": "[4]; light at 760±5 nm", "result": 75, "unit": "mJ/cm^2"}, {"measurement": "Number of Animals with Primary Tumor Regrowth (Days to Recurrence)", "setting": "C3H/BA mammary carcinoma; [5]", "result": "1(1 day)"}, {"measurement": "Summary (cures), symbol", "setting": "C3H/BA mammary carcinoma; [5]", "result": "−"}, {"measurement": "Toxicity (Treatment associated death)", "setting": "C3H/BA mammary carcinoma; [5]", "result": 0}, {"measurement": "Number of Animals with Primary Tumor Regrowth (Days to Recurrence)", "setting": "C3H/BA mammary carcinoma; [6]", "result": "1(11 days)"}, {"measurement": "Summary (cures) %", "setting": "C3H/BA mammary carcinoma; [6]", "result": 66.66, "unit": "%"}, {"measurement": "Summary (cures), number of animals (days)", "setting": "C3H/BA mammary carcinoma; [6]", "result": "2(41 days)"}, {"measurement": "Toxicity (Treatment associated death)", "setting": "C3H/BA mammary carcinoma; [6]", "result": 0}, {"measurement": "Summary (cures) %", "setting": "C3H/BA mammary carcinoma; [7]", "result": 100, "unit": "%"}, {"measurement": "Summary (cures), number of animals (days)", "setting": "C3H/BA mammary carcinoma; [7]", "result": "2(40 days)"}, {"measurement": "Toxicity (Treatment associated death)", "setting": "C3H/BA mammary carcinoma; [7]", "result": 0}, {"measurement": "Number of Animals with Primary Tumor Regrowth (Days to Recurrence)", "setting": "C3H/BA mammary carcinoma; [8]", "result": "1(5 days)"}, {"measurement": "Summary (cures) %", "setting": "C3H/BA mammary carcinoma; [8]", "result": 66.66, "unit": "%"}, {"measurement": "Summary (cures), number of animals (days)", "setting": "C3H/BA mammary carcinoma; [8]", "result": "2(40 days)"}, {"measurement": "Toxicity (Treatment associated death)", "setting": "C3H/BA mammary carcinoma; [8]", "result": 0}, {"measurement": "Summary (cures) %", "setting": "C3H/BA mammary carcinoma; [9]", "result": 100, "unit": "%"}, {"measurement": "Summary (cures), number of animals (days)", "setting": "C3H/BA mammary carcinoma; [9]", "result": "2(42 days)"}, {"measurement": "Toxicity (Treatment associated death)", "setting": "C3H/BA mammary carcinoma; [9]", "result": 0}, {"measurement": "Summary (cures) %", "setting": "C3H/BA mammary carcinoma; [10]", "result": 100, "unit": "%"}, {"measurement": "Summary (cures), number of animals (days)", "setting": "C3H/BA mammary carcinoma; [10]", "result": "2(41 days) and 1(41 days)"}, {"measurement": "Toxicity (Treatment associated death)", "setting": "C3H/BA mammary carcinoma; [10]", "result": 0}, {"measurement": "Number of Animals with Primary Tumor Regrowth (Days to Recurrence)", "setting": "C3H/BA mammary carcinoma; [11]", "result": "2(1 day)"}, {"measurement": "Summary (cures), symbol", "setting": "C3H/BA mammary carcinoma; [11]", "result": "−"}, {"measurement": "Toxicity (Treatment associated death)", "setting": "C3H/BA mammary carcinoma; [11]", "result": 0}, {"measurement": "effectiveness of PDT", "setting": "C3H/BA mammary carcinoma; 4-hour interval between drug administration and light treatment", "result": "not effective"}, {"measurement": "responsiveness of BA mammary carcinoma compared with RIF-1 fibrosarcoma", "setting": "C3H/BA mammary carcinoma; comparable PDT treatments", "result": "more responsive"}, {"measurement": "effectiveness of PDT", "setting": "C3H/BA mammary carcinoma; light treatments initiated within 1 hour of drug administration", "result": "effective"}]}]}
